Experimental data published in publication PMC9930818, “2-((1H-Benzo[d]imidazol-2-yl)amino)benzo[d]thiazole-6-sulphonamides: a class of carbonic anhydrase II and VII-selective inhibitors” (Journal of Enzyme Inhibition and Medicinal Chemistry, 2023).
Read-outs that look alike come from different tables or passages of the source.

Legend:
Test in all cases: stopped-flow CO2 hydration assay
Format in all cases: biochemical
hCA I = target: T1, hCA I (Homo sapiens, UniProt P00915)
T1 construct: gene CA1; recombinant, obtained in-house as reported earlier; cytosolic isoform
T1 sequence (P00915 2-261): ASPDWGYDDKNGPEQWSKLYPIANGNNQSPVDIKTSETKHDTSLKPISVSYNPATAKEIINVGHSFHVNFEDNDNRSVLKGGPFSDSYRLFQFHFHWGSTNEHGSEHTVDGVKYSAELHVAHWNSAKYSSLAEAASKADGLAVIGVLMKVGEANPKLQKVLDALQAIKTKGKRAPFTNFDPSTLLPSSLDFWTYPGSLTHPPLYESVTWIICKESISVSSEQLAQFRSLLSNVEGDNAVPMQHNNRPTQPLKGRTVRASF
Text: stopped-flow CO2 hydration assay on hCA I

hCA VII [1] = target: T2, hCA VII (Homo sapiens, UniProt P43166)
T2 construct: gene CA7; recombinant, obtained in-house as reported earlier; cytosolic isoform
T2 sequence (P43166 whole entry, canonical isoform): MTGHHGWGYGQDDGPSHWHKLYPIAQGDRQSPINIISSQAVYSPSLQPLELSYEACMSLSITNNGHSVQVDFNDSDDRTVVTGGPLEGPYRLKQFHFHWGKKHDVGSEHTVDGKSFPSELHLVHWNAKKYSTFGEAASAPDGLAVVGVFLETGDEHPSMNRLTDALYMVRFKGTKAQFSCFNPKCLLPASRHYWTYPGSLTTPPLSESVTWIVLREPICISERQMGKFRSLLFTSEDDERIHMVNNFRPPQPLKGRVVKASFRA
Text: stopped-flow CO2 hydration assay on hCA VII

hCA IV [2] = target: T3, hCA IV (Homo sapiens, UniProt P22748)
T3 construct: gene CA4; recombinant, obtained in-house as reported earlier
T3 sequence (P22748 19-284): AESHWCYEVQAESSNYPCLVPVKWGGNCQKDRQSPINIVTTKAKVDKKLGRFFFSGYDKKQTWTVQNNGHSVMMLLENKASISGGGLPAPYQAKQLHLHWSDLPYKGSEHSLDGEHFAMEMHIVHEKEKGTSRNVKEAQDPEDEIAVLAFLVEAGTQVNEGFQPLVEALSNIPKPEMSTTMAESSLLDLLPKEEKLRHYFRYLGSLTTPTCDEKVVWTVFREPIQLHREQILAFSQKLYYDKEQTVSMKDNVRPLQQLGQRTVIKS
Text: stopped-flow CO2 hydration assay on hCA IV

hCA II [3] = target: T4, hCA II (Homo sapiens, UniProt P00918)
T4 construct: gene CA2; recombinant, obtained in-house as reported earlier; cytosolic isoform
Text: stopped-flow CO2 hydration assay on hCA II

hCA IV [4] = target: T3, hCA IV; details: read-out: KI (nM)^a / hCA I
hCA II [5] = target: T4, hCA II; details: read-out: KI (nM)^a / hCA I
hCA VII [6] = target: T2, hCA VII; details: read-out: KI (nM)^a / hCA I

SMILES: NS(=O)(=O)c1ccc2nc(NC3=NCCN3)sc2c1 [6a, 2-((4,5-Dihydro-1H-imidazol-2-yl)amino)benzo[d]thiazole-6-sulphonamide]
- Ki (hCA I): 422 nM
- Ki (hCA VII [1]): 56.3 nM
- Ki (hCA IV [2]): > 100000 nM
- Ki (hCA II [3]): 37.6 nM

SMILES: CC1CN=C(Nc2nc3ccc(S(N)(=O)=O)cc3s2)N1 (stereo not shown) [6b, 2-((5-Methyl-4,5-dihydro-1H-imidazol-2-yl)amino)benzo[d]thiazole-6-sulphonamide]
- Ki (hCA I): 568 nM
- Ki (hCA VII [1]): 37.4 nM
- Ki (hCA IV [2]): > 100000 nM
- Ki (hCA II [3]): 48.1 nM

SMILES: NS(=O)(=O)c1ccc2nc(NC3=NC4CCCCC4N3)sc2c1 (stereo not shown) [6c, 2-((3a,4,5,6,7,7a-hexahydro-1H-benzo[d]imidazol-2-yl)amino)benzo[d]thiazole-6-sulphonamide]
- Ki (hCA I): 7590 nM
- Ki (hCA VII [1]): 82.5 nM
- Ki (hCA IV [2]): > 100000 nM
- Ki (hCA II [3]): 65.6 nM

SMILES: NS(=O)(=O)c1ccc2nc(Nc3nc4ccccc4[nH]3)sc2c1 [7a, 2-((1H-benzo[d]imidazol-2-yl)amino)benzo[d]thiazole-6-sulphonamide]
- Ki (hCA I): 4930 nM
- Ki (hCA VII [1]): 66.9 nM
- Ki (hCA IV [2]): > 100000 nM
- Ki (hCA II [3]): 84 nM

SMILES: NS(=O)(=O)c1ccc2nc(Nc3nc4ccc(C(F)(F)F)cc4[nH]3)sc2c1 [7b, 2-((6-(Trifluoromethyl)-1H-benzo[d]imidazol-2-yl)amino)benzo[d]thiazole-6-sulphonamide]
- Ki (hCA I): 8100 nM
- Ki (hCA VII [1]): 452 nM
- Ki (hCA IV [2]): > 100000 nM
- Ki (hCA II [3]): 375 nM

SMILES: NS(=O)(=O)c1ccc2nc(Nc3nc4ccc(Cl)cc4[nH]3)sc2c1 [7c, 2-((6-Chloro-1H-benzo[d]imidazol-2-yl)amino)benzo[d]thiazole-6-sulphonamide]
- Ki (hCA I): 9530 nM
- Ki (hCA VII [1]): 694 nM
- Ki (hCA IV [2]): > 100000 nM
- Ki (hCA II [3]): 578 nM

SMILES: O=S(=O)(NC1=NCCN1)c1ccc2nc(NC3=NCCN3)sc2c1 [9a, N-(4,5-Dihydro-1H-imidazol-2-yl)-2-((4,5-dihydro-1H-imidazol-2-yl)amino)benzo[d]thiazole-6-sulphonamide]
- Ki (hCA I): > 100000 nM
- Ki (hCA IV [4]): > 100000 nM
- Ki (hCA II [5]): > 100000 nM
- Ki (hCA VII [6]): > 100000 nM

SMILES: CC1CN=C(Nc2nc3ccc(S(=O)(=O)NC4=NCC(C)N4)cc3s2)N1 (stereo not shown) [9b]
- Ki (hCA I): > 100000 nM
- Ki (hCA IV [4]): > 100000 nM
- Ki (hCA II [5]): > 100000 nM
- Ki (hCA VII [6]): > 100000 nM

SMILES: O=S(=O)(NC1=NC2CCCCC2N1)c1ccc2nc(NC3=NC4CCCCC4N3)sc2c1 (stereo not shown) [9c, N-(3a,4,5,6,7,7a-hexahydro-1H-benzo[d]imidazol-2-yl)-2-((3a,4,5,6,7,7a-hexahydro-1H-benzo[d]imidazol-2-yl)amino)benzo[d]thiazole-6-sulphonamide]
- Ki (hCA I): > 100000 nM
- Ki (hCA IV [4]): > 100000 nM
- Ki (hCA II [5]): > 100000 nM
- Ki (hCA VII [6]): > 100000 nM

SMILES: O=S(=O)(Nc1nc2ccccc2[nH]1)c1ccc2nc(Nc3nc4ccccc4[nH]3)sc2c1 [9d]
- Ki (hCA I): > 100000 nM
- Ki (hCA IV [4]): > 100000 nM
- Ki (hCA II [5]): > 100000 nM
- Ki (hCA VII [6]): > 100000 nM
